Laboratory results: patent EP1970046A1, “Use of purine and purine derivatives for treating hair” (priority 2007, dated 2008)
Where two headings read alike, the source gives them in different places.

What was measured:
Format in all cases: cell-based
hha6 = assay: cells; settings: Keratinocyte, read-out: Haarkeratinexpression hha6 Mittelwert
Protocol: (§1) Zur Bestimmung des Einflusses von Theophyllin auf die Expression von Haarkeratinen wurde die differentielle Genexpression mittels quantitatitiver RT-PCR bestimmt. Nach Anzucht der Keratinozyten der äusseren Wurzelscheide (ORS-Keratinozyten) wurden diese für 3, 6 oder 24 h mit Theophyllin in Konzentration von 1.10 und 100 µM inkubiert.
(§2) Zur Durchführung der PCR wird zunächst mit Hilfe des RNeasy Mini Kits der Fa. Qiagen die RNA aus ORS-Keratinozyten isoliert und mittels reverser Transkription in cDNA umgeschrieben. Bei der anschließenden PCR Reaktion, die mit Hilfe genspezifischer Primer für die jeweiligen haarrelevanten Gene durchgeführt wird und die der Amplifikation der gesuchten Genabschnitte dient, wird die Bildung der PCR-Produkte online über ein Fluoreszenzsignal detektiert. Das Fluoreszenzsignal ist dabei proportional zur Menge des gebildeten PCR-Produktes. Je stärker die Expression eines bestimmten Gens Ist, desto größer Ist die Menge an gebildetem PCR-Produkt und um so höher ist das Fluoreszenzsignal. Zur Quantifizierung der Genexpression wird die unbehandelte Kontrolle gleich 1 gesetzt und die Expression der zu bestimmenden Gene darauf bezogen (x-fache Expression). Dabei werden Werte, die größer/gleich der 2fachen Expression oder kleiner/gleich der 0.5fachen Expression der unbehandelten Kontrolle sind als signifikant differentiell exprimiert eingestuft. Werte, die größer/gleich der 1,6fachen Expression oder kieiner/gleich der 0.66fachen Expression der unbehandelten Kontrolle sind als tendenziell differentiell exprimiert eingestuft. Die Ergebnisse sind in Tabelle 3 zusammengefasst. Tabelle 3: Haarkeratinexpression nach Behandlung von ORS-Keratinozyten in Zellkulturen im Vergleich zur unbehandelten Kontrolle.

hhb6 [1] = assay: cells; settings: Keratinocyte, read-out: Haarkeratinexpression hhb6 Mittelwert
Protocol: as §1, §2

hha4 [2] = assay: cells; settings: Keratinocyte, read-out: Haarkeratinexpression hha4 Mittelwert
Protocol: as §1, §2

hha1 = assay: cells; settings: Keratinocyte, read-out: Haarkeratinexpression hha1 Mittelwert
Protocol: as §1, §2

hha3 [3] = assay: cells; settings: Keratinocyte, read-out: Haarkeratinexpression hha3 Mittelwert
Protocol: as §1, §2

KGF [4] = assay: KGF release from organotypic hair follicle cell cultures (ELISA); settings: organotypische Haarfollikelzellkulturen
Source text: (§3) Hepatocyte Growth Factor (HGF) und Keratinocyte Growth Factor (KGF) sind wichtige Wachstumsfaktoren, die von der dermalen Papille ausgeschüttet werden, um die Proliferation der Haarschaftkeratinozyten, die für die Synthese der Haarkeratine verantwortlich sind, zu steuern. Sie sind außerdem charakteristische Marker für die Anagenphase, in der auch die Keratinsynthese maximal ist. Darüber hinaus ist zu beachten, dass bei der Haaralterung das Proliferationsvermögen der Haarfollikelzellen abnimmt. Die Ausschüttung von HGF sowie KGF kann mit Hilfe von kommerziell erhältlichen ELISA-Kits quantifiziert werden.
(§4) Dazu werden organotypische Haarfollikelzellkulturn über 72h mit Theophyllin inkubiert und die Konzentration der Wachstumsfaktoren im Medium in beschriebener Weise bestimmt. Tabelle 2: Relative Ausschüttung von HGF und KGF in [%] nach Behandlung des organotypischen Haarfollikelzellkulturen im Vergleich zu unbehandelten Kontrollen.

HGF = HGF release from organotypic hair follicle cell cultures (ELISA); settings: organotypische Haarfollikelzellkulturen
Source text: as §3, §4

hhb6 [5] = assay: cells; settings: read-out: Haarkeratinexpression hhb6 Mittelwert
Source text: as §2
(§5) Die Aktivierung der Keratinsynthese nach Applikation von Theophyllin wurde zusätzlich mit Hilfe organotypischer Haarfollikelzelikulturen untersucht, in denen verschiedene Zellen des Haarfollikels miteinander interagieren können. Die Untersuchungen erfolgten mit dem in Beispiel 3 erläuterten Verfahren der quantitativen Reverse Transkription Polymerase Kettenreaktion. Die Ergebnisse sind in Tabelle 4 zusammengefasst. Tabelle 4: Haarkeratinexpression nach Behandlung mit Theophyllin in organotpischen Haarfollikelzellkulturen im Vergleich zur unbehandelten Kontrolle.

hha4 [6] = assay: cells; settings: read-out: Haarkeratinexpression hha4 Mittelwert
Source text: as §2, §5

hha3 [7] = assay: cells; settings: read-out: Haarkeratinexpression hha3 Mittelwert
Source text: as §2, §5

KGF [8] = assay: KGF release from dermal papilla cells (ELISA); settings: dermale Papillenzellen
Source text: Der Keratinozyten Wachstumsfaktor Factor (KGF) Ist ein äußerst wichtiger Regulator des Haars. Bei einer potentiell wachstumsfördernden und das Haar stärkenden Aktivsubstanz kann von einer Steigerung der ins Medium ausgeschütteten Faktoren ausgegangen werden. Die Ausschüttung von KGF kann mit Hilfe von kommerziell erhältlichen ELISA-Kits quantifiziert werden. Dazu wurden die dermalen Papillenzellen über 24 Stunden mit Theophyllin inkubiert und die Konzentration des Wachstumsfaktors im Medium in beschriebener Weise quantifiziert. Tabelle 1: Relative Ausschüttung von KGF in [%] nach Behandlung der dermalen Papillenzellen im Vergleich zur unbehandelten Kontrollen.

Cn1c(=O)c2[nH]cnc2n(C)c1=O [Theophyllin]
fold induction at 1 µM (hha6; 3 h): 0.45
fold induction at 10 µM (hha6; 3 h): 0.59
fold induction at 100 µM (hha6; 3 h): 0.28
fold induction at 1 µM (hha6; 6 h): 1.12
fold induction at 10 µM (hha6; 6 h): 0.42
fold induction at 100 µM (hha6; 6 h): 0.57
fold induction at 1 µM (hha6; 24 h): 3.19
fold induction at 10 µM (hha6; 24 h): 2.14
fold induction at 100 µM (hha6; 24 h): 1.61
fold induction at 1 µM (hhb6 [1]; 3 h): 1.09
fold induction at 10 µM (hhb6 [1]; 3 h): 1.12
fold induction at 100 µM (hhb6 [1]; 3 h): 1.78
fold induction at 1 µM (hhb6 [1]; 6 h): 0.8
fold induction at 10 µM (hhb6 [1]; 6 h): 0.76
fold induction at 100 µM (hhb6 [1]; 6 h): 1.23
fold induction at 1 µM (hhb6 [1]; 24 h): 1.34
fold induction at 10 µM (hhb6 [1]; 24 h): 1.28
fold induction at 100 µM (hhb6 [1]; 24 h): 1.98
fold induction at 1 µM (hha4 [2]; 3 h): 0.83
fold induction at 10 µM (hha4 [2]; 3 h): 1.4
fold induction at 100 µM (hha4 [2]; 3 h): 2.41
fold induction at 1 µM (hha4 [2]; 6 h): 0.81
fold induction at 10 µM (hha4 [2]; 6 h): 0.88
fold induction at 100 µM (hha4 [2]; 6 h): 1.31
fold induction at 1 µM (hha4 [2]; 24 h): 1.27
fold induction at 10 µM (hha4 [2]; 24 h): 1.48
fold induction at 100 µM (hha4 [2]; 24 h): 2.65
fold induction at 1 µM (hha1; 3 h): 0.73
fold induction at 10 µM (hha1; 3 h): 1.18
fold induction at 100 µM (hha1; 3 h): 1.38
fold induction at 1 µM (hha1; 6 h): 0.9
fold induction at 10 µM (hha1; 6 h): 0.92
fold induction at 100 µM (hha1; 6 h): 1.22
fold induction at 1 µM (hha1; 24 h): 1.3
fold induction at 10 µM (hha1; 24 h): 1.4
fold induction at 100 µM (hha1; 24 h): 2.49
fold induction at 1 µM (hha3 [3]; 3 h): 0.86
fold induction at 10 µM (hha3 [3]; 3 h): 1.47
fold induction at 100 µM (hha3 [3]; 3 h): 2.47
fold induction at 1 µM (hha3 [3]; 6 h): 0.8
fold induction at 10 µM (hha3 [3]; 6 h): 0.87
fold induction at 100 µM (hha3 [3]; 6 h): 1.25
fold induction at 1 µM (hha3 [3]; 24 h): 1.2
fold induction at 10 µM (hha3 [3]; 24 h): 1.41
fold induction at 100 µM (hha3 [3]; 24 h): 2.75
Freisetzung von KGF (KGF [4]; 500 µM, result in words): tendenziell erhöhten Freisetzung
activity at 500 µM (KGF [4]; 72h, untreated = 100 (35), spread in brackets, read-out: Relative Ausschüttung von KGF Mittelwert): 144%
activity at 500 µM (HGF; HGF, 72h, untreated = 100 (14), spread in brackets, read-out: Relative Ausschüttung von HGF Mittelwert): 144%
Freisetzung des Hepatozyten Wachstumsfaktor (HGF) (HGF; 500 µM, result in words): erhöhte Freisetzung
fold induction at 10 µM (hhb6 [5]; 6 h): 1.28
fold induction at 100 µM (hhb6 [5]; 6 h): 2.06
fold induction at 10 µM (hhb6 [5]; 24 h): 1.81
fold induction at 100 µM (hhb6 [5]; 24 h): 1.68
fold induction at 10 µM (hha4 [6]; 6 h): 0.91
fold induction at 100 µM (hha4 [6]; 6 h): 1.56
fold induction at 10 µM (hha4 [6]; 24 h): 2.08
fold induction at 100 µM (hha4 [6]; 24 h): 1.88
fold induction at 10 µM (hha3 [7]; 6 h): 0.76
fold induction at 100 µM (hha3 [7]; 6 h): 0.76
fold induction at 10 µM (hha3 [7]; 24 h): 2.27
fold induction at 100 µM (hha3 [7]; 24 h): 3
activity at 1 µM (KGF [8]; 24 h, 24 Stunden, 1µM, untreated control = 100, read-out: Relative Ausschüttung von KGF Mittelwert): 121%
activity at 10 µM (KGF [8]; 24 h, 24 Stunden, 10µM, untreated control = 100, read-out: Relative Ausschüttung von KGF Mittelwert): 135%
activity at 100 µM (KGF [8]; 24 h, 24 Stunden, 100µM, untreated control = 100, read-out: Relative Ausschüttung von KGF Mittelwert): 161%
Freisetzung von KGF (KGF [8]; result in words): signifikant erhöhten Freisetzung
